Experimental data reported in PubChem BioAssay AID330 (DTP/NCI, 2004).
“And” between values parts separate entries of the source, which are not always exact repeats. Identical values can stand only once. Toxic doses and inconclusive results are not listed. How the source made its calls: active means survival T/C of 150% or more; inactive means T/C below 125% in these data.

Test system: P388 leukemia ip, CD2F1 mice, survival T/C
Assay: NCI In Vivo Anticancer Drug Screen. Data for tumor model P388 Leukemia (intraperitoneal) in CD2F1 (CDF1) mice
Conditions: endpoint: median survival time, higher = longer survival
Procedure, shortened: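 Mice carrying the transplanted tumor received test compound or vehicle. Survival was recorded in each group, and the value is the treated-group measurement divided by that of the vehicle-treated control group.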

[1] = dose: 50.0 mg/kg/injection, schedule: Q01DX009 (ip), vehicle: saline with Tween-80
[2] = dose: 100.0 mg/kg/injection, schedule: Q01DX009 (ip), vehicle: saline with Tween-80
[3] = dose: 200.0 mg/kg/injection, schedule: Q01DX009 (ip), vehicle: saline with Tween-80
[4] = dose: 60.0 mg/kg/injection, schedule: Q01DX005 (ip), vehicle: saline with Tween-80
[5] = dose: 120.0 mg/kg/injection, schedule: Q01DX005 (ip), vehicle: saline with Tween-80
[6] = dose: 240.0 mg/kg/injection, schedule: Q01DX005 (ip), vehicle: saline with Tween-80
[7] = dose: 50.0 mg/kg/injection, schedule: Q01DX009 (ip), vehicle: Klucel (hydroxypropylcellulose) (HPC)
[8] = dose: 100.0 mg/kg/injection, schedule: Q01DX009 (ip), vehicle: Klucel (hydroxypropylcellulose) (HPC)
[9] = dose: 200.0 mg/kg/injection, schedule: Q01DX009 (ip), vehicle: Klucel (hydroxypropylcellulose) (HPC)
[10] = dose: 12.5 mg/kg/injection, schedule: Q01DX009 (ip), vehicle: saline with Tween-80
[11] = dose: 25.0 mg/kg/injection, schedule: Q01DX009 (ip), vehicle: saline with Tween-80
[12] = dose: 100.0 mg/kg/injection, schedule: Q01DX001 (ip), vehicle: Klucel (hydroxypropylcellulose) (HPC)
[13] = dose: 200.0 mg/kg/injection, schedule: Q01DX001 (ip), vehicle: Klucel (hydroxypropylcellulose) (HPC)
[14] = dose: 400.0 mg/kg/injection, schedule: Q01DX001 (ip), vehicle: Klucel (hydroxypropylcellulose) (HPC)
[15] = dose: 100.0 mg/kg/injection, schedule: Q01DX009 (ip), vehicle: saline
[16] = dose: 6.25 mg/kg/injection, schedule: Q01DX005 (ip), vehicle: saline with Tween-80
[17] = dose: 12.5 mg/kg/injection, schedule: Q01DX005 (ip), vehicle: saline with Tween-80
[18] = dose: 50.0 mg/kg/injection, schedule: Q01DX005 (ip), vehicle: saline with Tween-80
[19] = dose: 100.0 mg/kg/injection, schedule: Q01DX005 (ip), vehicle: saline with Tween-80
[20] = dose: 200.0 mg/kg/injection, schedule: Q01DX005 (ip), vehicle: saline with Tween-80

Measured: T/C

CCCCc1c(O)c2c(=O)[nH]c(C)nc2oc1=O
inactive: dose: 3.75 mg/kg/injection, schedule: Q01DX005 (ip), vehicle: Klucel (hydroxypropylcellulose) (HPC) 96 % of control | dose: 7.5 mg/kg/injection, schedule: Q01DX005 (ip), vehicle: Klucel (hydroxypropylcellulose) (HPC) 95 % of control | dose: 15.0 mg/kg/injection, schedule: Q01DX005 (ip), vehicle: Klucel (hydroxypropylcellulose) (HPC) 92 % of control

CCN(C)c1cc2c3c(c1)CCCN3CCC2
inactive: dose: 1.25 mg/kg/injection, schedule: Q01DX009 (ip), vehicle: saline 113 % of control | dose: 1.25 mg/kg/injection, schedule: Q04DX003 (ip), vehicle: saline 100 % of control | dose: 2.5 mg/kg/injection, schedule: Q01DX009 (ip), vehicle: saline 109 % of control | dose: 2.5 mg/kg/injection, schedule: Q04DX003 (ip), vehicle: saline 95 % of control | dose: 5.0 mg/kg/injection, schedule: Q01DX009 (ip), vehicle: saline 104 % of control | dose: 5.0 mg/kg/injection, schedule: Q04DX003 (ip), vehicle: saline 109 % of control

CC1=NN(C(=O)c2ccncc2)C(=O)C1N=Nc1ccccc1C (stereo unspecified)
inactive: [1] 95 % of control | [2] 94 % of control | [3] 94 % of control

O/N=C(/Cc1nc2cc(Cl)c(Cl)cc2nc1C/C(=N/O)c1ccncc1)c1ccncc1
inactive: [4] 102 % of control | [5] 100 % of control | [6] 102 % of control

COC(=O)CCC(=O)Nc1c(C)cccc1C(C)C
inactive: [4] 105 % of control | [5] 99 % of control | [6] 99 % of control

CC1(O)CC23CC1CCC2(C)C12CCCC(C)(C(=O)O1)C2CC3O (stereo unspecified)
inactive: dose: 12.5 mg/kg/injection, schedule: Q01DX009 (ip), vehicle: Klucel (hydroxypropylcellulose) (HPC) 99 % of control | dose: 25.0 mg/kg/injection, schedule: Q01DX009 (ip), vehicle: Klucel (hydroxypropylcellulose) (HPC) 100 % of control | [7] 108 % of control | [8] 103 % of control | [9] 100 % of control

CS(=O)(=O)/C=C/c1cc2ccccc2[nH]1
inactive: [7] 89 % of control | [8] 101 % of control | [9] 104 % of control

C[n+]1cccc2c1C(=O)C(=O)c1ncccc1-2
inactive: [10] 100 % of control | [11] 108 % of control | [1] 109 % of control

c1ccc(C2CC(c3ccccc3)c3ccccc3O2)cc1 (stereo unspecified)
inactive: [12] 87 % of control | [13] 90 % of control | [14] 96 % of control

CN(C)P(N)(N)=O
inactive: [15] 105 % of control | dose: 200.0 mg/kg/injection, schedule: Q01DX009 (ip), vehicle: saline 95 % of control | dose: 400.0 mg/kg/injection, schedule: Q01DX009 (ip), vehicle: saline 100 % of control

CCCCCCCCCCCCCCCCCSCc1ccc(Nc2ccccc2)cc1
inactive: [11] 108 % of control | dose: 50.0 mg/kg/injection, schedule: Q01DX009 (ip), vehicle: other 116 % of control | [1] 103 % of control and 108 % of control | dose: 100.0 mg/kg/injection, schedule: Q01DX009 (ip), vehicle: other 116 % of control | [2] 103 % of control | dose: 200.0 mg/kg/injection, schedule: Q01DX009 (ip), vehicle: other 118 % of control | [3] 116 % of control and 93 % of control

COc1ccc(-c2c(S(C)(=O)=O)nsc2S(C)(=O)=O)cc1
inactive: [7] 105 % of control | [8] 106 % of control | [9] 97 % of control

CN1C(c2ccccc2)C2CCCC(C2O)C1c1ccccc1 (stereo unspecified)
inactive: dose: 100.0 mg/kg/injection, schedule: Q04DX003 (ip), vehicle: saline 97 % of control | dose: 200.0 mg/kg/injection, schedule: Q04DX003 (ip), vehicle: saline 100 % of control | dose: 400.0 mg/kg/injection, schedule: Q04DX003 (ip), vehicle: saline 98 % of control

CC(C)(C)OC(=O)O/N=C(\C#N)c1ccccc1
inactive: [10] 90 % of control | [11] 104 % of control | [1] 100 % of control and 103 % of control | [3] 100 % of control

CN(C)C(=Nc1ccccc1)OC1=C/C(=C2/C=C(OC(=Nc3ccccc3)N(C)C)N=C2OC(=Nc2ccccc2)N(C)C)C(OC(=Nc2ccccc2)N(C)C)=N1
inactive: [12] 106 % of control | [13] 106 % of control | [14] 104 % of control

CCC1C[N+]2=C(c3cc(OC)c(OC)cc3CC2)c2c1cc1n2CCc2cc(OC)c(OC)cc2-1 (stereo unspecified)
inactive: dose: 0.75 mg/kg/injection, schedule: Q01DX005 (ip), vehicle: saline with Tween-80 101 % of control | dose: 1.5 mg/kg/injection, schedule: Q01DX005 (ip), vehicle: saline with Tween-80 109 % of control | dose: 3.0 mg/kg/injection, schedule: Q01DX005 (ip), vehicle: saline with Tween-80 117 % of control | dose: 3.12 mg/kg/injection, schedule: Q01DX005 (ip), vehicle: saline with Tween-80 111 % of control | [16] 109 % of control | [17] 114 % of control

O=C(O)C1C(C(=O)O)C2(Cl)C(Cl)=C(Cl)C1(Cl)C2(Cl)Cl.[Fe] (stereo unspecified)
inactive: dose: 6.25 mg/kg/injection, schedule: Q01DX001 (ip), vehicle: saline with Tween-80 100 % of control | dose: 12.5 mg/kg/injection, schedule: Q01DX001 (ip), vehicle: saline with Tween-80 104 % of control | dose: 25.0 mg/kg/injection, schedule: Q01DX001 (ip), vehicle: saline with Tween-80 109 % of control

CCCCC1(CC(=O)OCC)SCCN1C(N)=O (stereo unspecified)
inactive: [7] 100 % of control | [8] 108 % of control | [9] 106 % of control

COc1ccc2c(c1)CCC1C=NOC21 (stereo unspecified)
inactive: dose: 50.0 mg/kg/injection, schedule: Q01DX005 (ip), vehicle: Klucel (hydroxypropylcellulose) (HPC) 97 % of control | dose: 100.0 mg/kg/injection, schedule: Q01DX005 (ip), vehicle: Klucel (hydroxypropylcellulose) (HPC) 103 % of control | dose: 200.0 mg/kg/injection, schedule: Q01DX005 (ip), vehicle: Klucel (hydroxypropylcellulose) (HPC) 97 % of control

Cc1cccc2c1nc(C)c1nc(-c3ccccc3)oc12
inactive: [16] 101 % of control | [17] 91 % of control | dose: 25.0 mg/kg/injection, schedule: Q01DX005 (ip), vehicle: saline with Tween-80 90 % of control | [18] 89 % of control | [19] 89 % of control | [20] 94 % of control

OCCC[N+]12CCCN1CCC2
inactive: dose: 50.0 mg/kg/injection, schedule: Q01DX009 (ip), vehicle: saline 98 % of control | [15] 104 % of control

CC(=O)NSCC(NC(=O)OC(C)(C)C)C(=O)O (stereo unspecified)
inactive: [18] 97 % of control | [19] 102 % of control | [20] 95 % of control

Cc1cccc(N(CCOS(C)(=O)=O)CCOS(C)(=O)=O)c1
inactive: dose: 1.56 mg/kg/injection, schedule: Q01DX009 (ip), vehicle: saline 95 % of control | dose: 3.12 mg/kg/injection, schedule: Q01DX009 (ip), vehicle: saline 98 % of control | dose: 6.25 mg/kg/injection, schedule: Q01DX009 (ip), vehicle: saline 100 % of control | [10] 87 % of control | dose: 25.0 mg/kg/injection, schedule: Q01DX009 (ip), vehicle: saline 102 % of control
